Calls of active or inactive are those of the source.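 Rule for the calls: active = AC50, the dose giving half-maximal effect, exceeds a fixed cutoff for a compound that rescues yeast growth under heat; inactive = the rest, inconclusive results apart.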
Tested on: S. cerevisiae Burl-1 ts mutant growth, BacTiter-Glo, 38.5C 24 h
Test: restored growth of temperature-sensitive Burl-1 yeast – whole organism, S. cerevisiae, Burl-1 ts mutant, luminescence, counter-screen for SUMOylation pathway inhibitor project, dose response (AID 463199)

SMILES	AC50
Cc1n[nH]c(C)c1S(=O)(=O)N(CC(=O)NC1CCCC1)c1ccc(C(C)C)cc1	38.7 µM
CC(=O)Nc1sc2c(c1C(c1ccc(F)cc1)N1CCOCC1)CCCC2 (stereo not given)	> 42 µM (inactive)
Clc1ccc(CSc2nnc(CN3CCOCC3)n2-c2ccccc2)cc1Cl	> 42 µM (inactive)
COc1ccc(/C=C(\C#N)C(=O)c2cccn2C)cc1	> 42 µM (inactive)
Cc1c(NP(=O)(c2ccc(Br)cc2)c2ccc(Br)cc2)c(=O)n(-c2ccccc2)n1C	> 42 µM (inactive)
NC(=O)C1CCN(C2CC(=O)N(c3ccc(F)c(Cl)c3)C2=O)CC1 (stereo not given)	> 42 µM (inactive)
CN(C(=O)CSc1nnc(-c2cccc(F)c2)n1N)C1CCS(=O)(=O)C1 (stereo not given)	> 42 µM (inactive)
COc1ccc(-n2c(-c3ccccc3)nc3ccccc3c2=O)cc1	> 42 µM (inactive)
CC(C)(C)c1ccc(-c2nc(C=O)c3ccccn23)cc1	> 42 µM (inactive)
COc1cccc(OC)c1C(=O)Nc1ccc2c(c1)N(S(=O)(=O)c1cccs1)CCC2	> 42 µM (inactive)
Cc1ccc(C(=O)NNc2ncnc3c2cnn3C)cc1	> 42 µM (inactive)
COc1ccc(NC(=O)COc2cc(C)cc(C)c2)cc1S(=O)(=O)N1CCCCC1	> 42 µM (inactive)
COc1cccc(N2CCN(C3CCCC(C)C3)CC2)c1 (stereo not given)	> 42 µM (inactive)
CCN(Cc1ccccc1)Cc1ccc(OCc2ccccc2)c(OC)c1	> 42 µM (inactive)
O=C(O)/C=C/c1cccnc1	> 42 µM (inactive)
CCc1nnc2n1N=C(c1ccc(Cl)cc1)CS2	> 42 µM (inactive)
COc1cc(O)oc1C=Nc1ccc(C(=O)O)cc1	> 42 µM (inactive)
CCOC(=O)Cn1c(=O)n(Cc2ccco2)c(=O)c2ccc(C(=O)NCCc3ccccc3)cc21	> 42 µM (inactive)
O=C1NC(c2ccccc2)C(C(=O)c2cccs2)C(O)(C(F)(F)F)N1 (stereo not given)	> 42 µM (inactive)
COc1cc2c(cc1OC)C(c1ccc(SC)cc1)CC(=O)N2 (stereo not given)	> 42 µM (inactive)
O=C(CCC(F)(F)F)N1CCCC(CO)(CCc2ccccc2)C1 (stereo not given)	> 42 µM (inactive)
CC1CN(Cc2ccccc2)c2nc3c(c(=O)[nH]c(=O)n3C)n2C1 (stereo not given)	> 42 µM (inactive)
O=C1C2CCCCN2C(=O)N1CCCCN1CCN(c2ccccc2Oc2ccccc2)CC1 (stereo not given)	> 42 µM (inactive)
O=C(CCS(=O)(=O)c1ccc(Br)s1)NCc1ccccc1	> 42 µM (inactive)
N#CCC(=O)N/N=C/c1ccc(OS(=O)(=O)c2ccccc2)cc1	> 42 µM (inactive)

SMILES	AC50
O=C(O)c1cc(Oc2ccc(C(F)(F)F)cc2Cl)ccc1[N+](=O)[O-]	> 42 µM (inactive)
Cc1ccc(C2=NN(CC(=O)NCc3cccs3)C(=O)CC2)cc1	> 42 µM (inactive)
COc1ccc(-c2oc3ccc(-c4cc(OC)c(OC)c(OC)c4)cc3c2C(=O)c2ccc(OC)nc2)cc1	> 42 µM (inactive)
O=C(Nc1ccccc1N1CCN(c2ccccc2)CC1)c1cccc(F)c1	> 42 µM (inactive)
O=C(O)CCc1ccc(-c2ccccc2)n1NC(=O)c1cccs1	> 42 µM (inactive)
COc1ccc(-c2nc(C#N)c(NC(C)c3ccccc3)o2)cc1OC (stereo not given)	> 42 µM (inactive)
O=C(NCc1cccnc1)C1CCN(S(=O)(=O)c2cccnc2)CC1	> 42 µM (inactive)
CS(=O)(=O)N1CCCC(C(=O)NCc2ccco2)C1 (stereo not given)	> 42 µM (inactive)
Cc1cccc(N2C(=O)CSC2c2cccnc2)c1 (stereo not given)	> 42 µM (inactive)
O=C(NC1CCCCCC1)C1CCN(S(=O)(=O)c2cccc3cccnc23)CC1	> 42 µM (inactive)
CC(C(=O)NCCN1CCOCC1)(c1ccccc1)c1ccccc1	> 42 µM (inactive)
COC(=O)c1sccc1NC(=S)N1CCCCC1	> 42 µM (inactive)
COc1ccc(CN2C(=O)C(=O)N(CC(N)=O)C2=O)cc1	> 42 µM (inactive)
COc1ccc(S(=O)(=O)Nc2ccc(NC(C)=O)cc2)cc1OC	> 42 µM (inactive)
CN(C)CCNC(=O)c1scc2c1CCCC2	> 42 µM (inactive)
COc1ccc(NC2CCCN(C(=O)CCc3scnc3C)C2)cc1 (stereo not given)	> 42 µM (inactive)
O=C1N=C(N2CCN(c3ccccc3)CC2)SC1Cc1ccccc1 (stereo not given)	> 42 µM (inactive)
CC(=O)N1CCc2cc(S(=O)(=O)CCC(=O)N3CCN(C(=O)c4ccco4)CC3)ccc21	> 42 µM (inactive)
O=C(Nc1ccc(F)cc1F)N1CCCN(c2ccc(C(F)(F)F)cn2)CC1	> 42 µM (inactive)
COc1ccc(CC(=O)NCCN2CCOCC2)cc1	> 42 µM (inactive)
O=C(/C=C/NNC(=O)c1ccc(Br)cc1)c1ccccc1	> 42 µM (inactive)
CC(C)(C)C(=O)Nc1ccc(C(=O)NCc2cccnc2)cc1	> 42 µM (inactive)
COc1ccc(NC(=O)Nc2ccc(OC)cc2)cc1	> 42 µM (inactive)
COc1ccc(NC(=O)CN(C)C(=O)/C=C/c2cn(-c3ccccc3)nc2-c2ccc(C)cc2)cc1	> 42 µM (inactive)
CC1CCC(C(C)C)C(OC(=O)COC(=O)c2cccn2C)C1 (stereo not given)	> 42 µM (inactive)

SMILES	AC50
CC(C)C(OC(=O)CN1C(=O)COc2ccccc21)C(=O)NC1CCCC1 (stereo not given)	> 42 µM (inactive)
O=C(NNS(=O)(=O)c1c(F)cc(F)c(Cl)c1F)C12CC3CC(CC(C3)C1)C2	> 42 µM (inactive)
Cc1cccn2c(=O)c3cc(C(=O)NCc4cccnc4)c(=N)n(C(C)C)c3nc12	> 42 µM (inactive)
Cc1ccc(S(=O)(=O)Oc2ccc(/C=C3\N=C(c4cccc(C)c4)OC3=O)cc2)cc1	> 42 µM (inactive)
CCC(c1nnnn1C1CCCC1)N1CCN(c2cccc(OC)c2)CC1 (stereo not given)	> 21 µM (inactive)
N#CCSc1nc2c(c(C3CC=CCC3)c1C#N)CCC2 (stereo not given)	> 42 µM (inactive)
CC1=C(C#N)S(=O)(=O)C(C#N)C(c2ccccc2)C1 (stereo not given)	> 42 µM (inactive)
c1ccc(-c2nc(NCc3ccco3)c3ccccc3n2)nc1	> 42 µM (inactive)
NC(=O)c1cc(S(=O)(=O)N2CCCC2)ccc1OCc1ccc(F)cc1	> 42 µM (inactive)
O=C(NCc1cccnc1)Nc1ccccc1	> 42 µM (inactive)
O=C(c1ccncc1)N(Cc1ccccc1)Cc1nc2ccccc2c(=O)[nH]1	> 42 µM (inactive)
O=C(CCl)N(Cc1cc(=O)[nH]c2ccccc12)c1ccccc1	> 42 µM (inactive)
Cc1cc(CNC(=O)C2CCC(=O)N(Cc3ccccc3F)C2)on1 (stereo not given)	> 42 µM (inactive)
CCCOc1ccccc1C1NC(=O)NC(C)=C1C(=O)OCc1ccccc1 (stereo not given)	> 42 µM (inactive)
c1ccc(N2CCN(C3CCSC3)CC2)cc1 (stereo not given)	> 42 µM (inactive)
COc1ccc(C(=O)COc2ccc3ccc(=O)oc3c2)cc1	> 42 µM (inactive)
C(=N\N1CCN(C2c3ccccc3-c3ccccc32)CC1)/c1ccncc1	> 42 µM (inactive)
CS(=O)(=O)C1=NSC2=NC(=O)/C(=C\c3ccc(OS(=O)(=O)c4ccccc4)cc3)C(=N)N21	> 42 µM (inactive)
O=C(Nc1ccc(F)cc1)c1cccnn1	> 42 µM (inactive)
COc1ccccc1N(CC(=O)NCC1CCCO1)C(=O)CCC(=O)Nc1cc(C)on1 (stereo not given)	> 42 µM (inactive)
CCn1c(N2CCN(C(=O)C34CC5CC(CC(C5)C3)C4)CC2)nc2ccccc21	> 42 µM (inactive)
Cc1c(C2(O)CCCCC2)[nH]c2ccc(C#N)cc12	> 42 µM (inactive)
Cc1ccc2nc(N/N=C/c3ccccc3F)nc(-c3ccccc3)c2c1	> 42 µM (inactive)
CN(C(=O)c1ccc(-c2nn(C)c(=O)c3ccccc23)cc1)C1CCCCC1	> 42 µM (inactive)
Cc1cccc(CSc2ccc(-c3ccco3)nn2)c1	> 42 µM (inactive)

SMILES	AC50
Nc1nc(-c2ccc(Cl)cc2)nc(-c2ccc(Cl)cc2)n1	> 42 µM (inactive)
COc1ccc(-n2nc(C(=O)NCC(=O)N3CCCC3)c3ccccc3c2=O)c(OC)c1	> 42 µM (inactive)
O=C(COc1ccc(Cl)cc1)NCCCNC(=O)c1ccccn1	> 42 µM (inactive)
CCC12CN3CCN(CC(C3)/C1=N/NC(=O)c1ccncc1)C2	> 42 µM (inactive)
CCCOC(=O)c1c(-c2ccc(OC)cc2)oc2ccc(-c3ccc(OC)nc3)cc12	> 42 µM (inactive)
COc1ccc(C(=O)N(CCc2ccccc2)Cc2ccccc2)c(OC)n1	> 42 µM (inactive)
CCn1c(SCc2nc3ccccc3[nH]2)nnc1-c1cccnc1	> 42 µM (inactive)
Cc1sc2ncnc(N3CCC(C(=O)NNC(=O)COc4ccccc4F)CC3)c2c1C	> 42 µM (inactive)
COC(=O)C1(Cc2cc(-c3ccccc3)no2)CCN(C(=O)OC(C)(C)C)CC1	> 42 µM (inactive)
COc1ccccc1-c1nnc(SCC(=O)NC2CCS(=O)(=O)C2)n1N (stereo not given)	> 42 µM (inactive)
CSc1ccc(CCNC(=O)C2CCCN(S(=O)(=O)N3CCOCC3)C2)cc1 (stereo not given)	> 42 µM (inactive)
Cc1ccc(S(=O)(=O)N2[C@@H](c3ccc(Br)cc3)C(C(=O)O)=C[C@H]2CC2CCCC2)cc1	> 42 µM (inactive)
Cn1c(=O)c2c(ncn2CC(=O)OCC(=O)Nc2ccc(Cl)cc2)n(C)c1=O	> 42 µM (inactive)
O=C(CCNC(=O)c1ccc(Br)cc1)NCc1ccccc1F	> 42 µM (inactive)
COc1cc(C(=O)N/N=C/c2ccccn2)cc(OC)c1OC	> 42 µM (inactive)
O=C(c1cc2c(ccc3ccccc32)oc1=O)N1CCCC1	> 42 µM (inactive)
Cn1c(=O)[nH]c(=O)c2c1nc(NCCN)n2CCOc1ccccc1	> 42 µM (inactive)
CCN1CSC(=S)N(Cc2ccc(OC)cc2)C1	7.78 µM
O=C(CSc1nc(-c2ccccc2)cc(=O)[nH]1)Nc1ccc(Br)cc1	> 42 µM (inactive)
N/C(=N\N=C\c1ccc(O)cc1)c1nonc1N	> 42 µM (inactive)
COC(=O)CN(C(=S)Nc1ccc(F)cc1)C1CC(=O)N(c2ccccc2)C1=O (stereo not given)	> 42 µM (inactive)
COc1ccccc1N1CCN(C(=O)C(=O)N/N=C/c2ccccc2F)CC1	> 42 µM (inactive)
CCCN1C(=O)c2ccc(C(=O)Nc3nccs3)cc2C1=O	> 42 µM (inactive)
Cc1cccc(CS(=O)(=O)Cc2ccc(C(=O)NCC3CCCO3)o2)c1 (stereo not given)	> 42 µM (inactive)
COc1ccc(OC)c(Cc2nnc(CCC(=O)NCc3ccsc3)o2)c1	> 42 µM (inactive)
